The supplement of paper PMC10307832

Legend:
Test in all cases: relative viability (nuclei count vs DMSO), 5 days (fraction); higher = more cells survive
[1] = compound: CC(C)=CC[C@@H](O)C1=CC(=O)c2c(O)ccc(O)c2C1=O [Shikonin] + N=C(N)NC(=N)NCCc1ccccc1 [Phenformin] (partner 250 µM)
How it was run: (§1)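 Each reported value is a median over duplicate plates. It expresses relative viability: treated-well nuclei count divided by vehicle-well nuclei count. Lung cancer cell lines in 1536-well plates were dosed by pin tool a day after seeding, alone with one drug or with a fixed anchor-drug dose plus five library-drug doses (not always all listed) in √10 steps, and nuclei were counted after 5 days.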

[2] = compound: CC(C)N(CCCNC(=O)Nc1ccc(C(C)(C)C)cc1)C[C@H]1O[C@@H](n2ccc3c(N)ncnc32)[C@H](O)[C@@H]1O + CC1(C)CCC(c2ccc(Cl)cc2)=C(CN2CCN(c3ccc(C(=O)NS(=O)(=O)c4ccc(N[C@H](CCN5CCOCC5)CSc5ccccc5)c(S(=O)(=O)C(F)(F)F)c4)cc3)CC2)C1 [Navitoclax] (partner 0.5 µM)
How it was run: as §1

[3] = compound: CC(C)=CC[C@@H](O)C1=CC(=O)c2c(O)ccc(O)c2C1=O [Shikonin] + CC(=O)Nc1cccc(-n2c(=O)n(C3CC3)c(=O)c3c(Nc4ccc(I)cc4F)n(C)c(=O)c(C)c32)c1 [Trametinib] (partner 0.02 µM)
How it was run: as §1

[4] = compound: CC(C)=CC[C@@H](O)C1=CC(=O)c2c(O)ccc(O)c2C1=O [Shikonin] + Nc1ncn([C@H]2C[C@H](O)[C@@H](CO)O2)c(=O)n1 [Decitabine] (partner 2 µM)
How it was run: as §1

Cell Line | relative viability ([1]; first compound 0.01 µM) | relative viability ([1]; first compound 0.1 µM) | relative viability ([1]; first compound 0.3162 µM) | relative viability ([1]; first compound 1 µM) | relative viability ([2]; first compound 0.08 µM) | relative viability ([2]; first compound 0.253 µM) | relative viability ([2]; first compound 0.8 µM) | relative viability ([2]; first compound 2.53 µM) | relative viability ([2]; first compound 8 µM) | relative viability ([3]; first compound 0.01 µM) | relative viability ([3]; first compound 0.1 µM) | relative viability ([3]; first compound 0.3162 µM) | relative viability ([3]; first compound 1 µM) | relative viability ([4]; first compound 0.01 µM) | relative viability ([4]; first compound 0.1 µM) | relative viability ([4]; first compound 0.3162 µM) | relative viability ([4]; first compound 1 µM)
CAL-12T | 0.612 | 0.542 | 0.464 | 0.55 | 1.14 | 1.27 | 1.19 | 1.19 | 1.19 | 0.346 | 0.376 | 0.243 | 0.28 |  |  |  | 
SW 1573 | 0.389 | 0.388 | 0.325 | 0.122 | 1.04 | 1.06 | 1.09 | 1.15 | 1.09 | 0.615 | 0.502 | 0.502 | 0.112 | 0.446 | 0.686 | 0.261 | 0.135
NCI-H1650 | 0.443 | 0.488 | 0.335 | 0.254 | 1.11 | 1.17 |  | 1.14 | 1 | 0.582 | 0.492 | 0.523 | 0.491 | 0.379 | 0.355 | 0.424 | 0.389
BEN | 0.298 | 0.286 | 0.279 | 0.232 | 0.0864 | 0.0543 | 0.0608 | 0.0499 | 0.0778 | 1.13 | 1.06 | 1.03 | 1.19 | 0.658 | 0.787 | 0.707 | 0.767
EMC-BAC-2 | 0.516 | 0.607 | 0.569 | 0.517 | 1.14 | 1.15 | 1.13 | 1.14 | 1.08 | 0.863 | 0.947 | 1 | 0.851 | 0.964 | 1.07 | 1.13 | 0.956
LU99A | 0.859 | 1.15 | 0.758 | 0.791 | 0.745 | 0.717 | 0.747 | 1.01 | 0.881 | 0.537 | 0.563 | 0.567 | 0.478 | 0.744 | 1.05 | 0.978 | 0.852
ABC-1 | 0.247 | 0.23 | 0.206 | 0.188 |  |  |  |  |  |  |  |  |  | 1.33 | 1.28 | 1.21 | 1.02
NCI-H2170 | 0.399 | 0.445 | 0.449 | 0.431 | 0.605 | 0.637 | 0.594 | 0.567 | 0.544 | 0.937 | 0.97 | 0.959 | 0.981 | 0.481 | 0.449 | 0.496 | 0.503
NCI-H1299 |  |  |  |  | 1.07 | 1.05 | 1.02 | 1.06 | 1.02 |  |  |  |  |  |  |  | 
EBC-1 |  |  |  |  | 0.406 | 0.387 | 0.383 | 0.363 | 0.388 |  |  |  |  |  |  |  | 
